Laboratory results taken from PMC8213057, “Targeting ALK2: An Open Science Approach to Developing Therapeutics for the Treatment of Diffuse Intrinsic Pontine Glioma” (Journal of Medicinal Chemistry, 2020).

Key:
ALK2/ACVR1 = molecular target: T1, ALK2/ACVR1 (Homo sapiens, UniProt Q04771); test: biochemical; settings: Run 1, Run 2; for % enzyme activity: 1 μM; for remaining activity at 1 µM: read-out: % enzyme activity, 1 μM
T1 construct: purchased Reaction Biology Corporation
T1 sequence (Q04771 21-509): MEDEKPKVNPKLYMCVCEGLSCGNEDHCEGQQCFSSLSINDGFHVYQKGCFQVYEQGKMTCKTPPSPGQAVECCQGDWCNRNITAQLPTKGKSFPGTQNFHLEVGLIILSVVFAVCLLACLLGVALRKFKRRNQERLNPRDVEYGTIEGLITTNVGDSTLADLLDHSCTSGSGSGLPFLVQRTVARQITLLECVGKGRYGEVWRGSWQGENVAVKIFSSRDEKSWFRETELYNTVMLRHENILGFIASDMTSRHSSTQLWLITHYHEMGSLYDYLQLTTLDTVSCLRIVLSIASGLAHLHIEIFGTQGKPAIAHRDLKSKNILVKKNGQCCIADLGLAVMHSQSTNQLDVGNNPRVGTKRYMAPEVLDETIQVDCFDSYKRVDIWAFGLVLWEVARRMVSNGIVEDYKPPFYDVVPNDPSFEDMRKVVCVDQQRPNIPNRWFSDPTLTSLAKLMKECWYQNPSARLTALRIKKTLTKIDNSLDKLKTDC

EGFR = EGFR (Homo sapiens, UniProt P00533); settings: 1 μM; Run 1, Run 2
p70S6K/RPS6KB1 = p70S6K/RPS6KB1 (Homo sapiens, UniProt P23443); settings: 1 μM; Run 1, Run 2
MEKK3 = molecular target: T2, MEKK3 (Homo sapiens, UniProt Q99759); test: biochemical; settings: read-out: % enzyme activity, 1 μM; Run 1, Run 2
T2 sequence (Q99759 1-626): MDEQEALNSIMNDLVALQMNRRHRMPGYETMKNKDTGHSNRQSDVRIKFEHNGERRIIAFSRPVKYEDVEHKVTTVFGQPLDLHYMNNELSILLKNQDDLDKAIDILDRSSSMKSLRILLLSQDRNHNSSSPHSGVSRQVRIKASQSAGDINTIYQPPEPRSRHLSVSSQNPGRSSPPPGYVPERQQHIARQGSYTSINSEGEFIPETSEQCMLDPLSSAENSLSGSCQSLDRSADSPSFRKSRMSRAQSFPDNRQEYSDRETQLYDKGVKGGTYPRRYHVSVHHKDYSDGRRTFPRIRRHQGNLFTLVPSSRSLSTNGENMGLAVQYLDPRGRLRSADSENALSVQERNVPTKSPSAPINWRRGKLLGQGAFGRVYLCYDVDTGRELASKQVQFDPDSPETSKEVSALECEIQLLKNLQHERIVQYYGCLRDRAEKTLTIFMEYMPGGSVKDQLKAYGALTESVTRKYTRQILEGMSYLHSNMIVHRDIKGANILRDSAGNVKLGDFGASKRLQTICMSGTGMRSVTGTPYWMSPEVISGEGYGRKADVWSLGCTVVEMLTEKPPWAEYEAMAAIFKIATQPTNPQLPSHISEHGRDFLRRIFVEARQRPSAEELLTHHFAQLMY

CAMK4 = CAMK4 (Homo sapiens, UniProt Q16566); settings: 1 μM; Run 1, Run 2
PKD2/PRKD2 = molecular target: T3, PKD2/PRKD2 (Homo sapiens, UniProt Q9BZL6); test: biochemical; settings: read-out: % enzyme activity, 1 μM; Run 1, Run 2
T3 sequence (Q9BZL6 1-878): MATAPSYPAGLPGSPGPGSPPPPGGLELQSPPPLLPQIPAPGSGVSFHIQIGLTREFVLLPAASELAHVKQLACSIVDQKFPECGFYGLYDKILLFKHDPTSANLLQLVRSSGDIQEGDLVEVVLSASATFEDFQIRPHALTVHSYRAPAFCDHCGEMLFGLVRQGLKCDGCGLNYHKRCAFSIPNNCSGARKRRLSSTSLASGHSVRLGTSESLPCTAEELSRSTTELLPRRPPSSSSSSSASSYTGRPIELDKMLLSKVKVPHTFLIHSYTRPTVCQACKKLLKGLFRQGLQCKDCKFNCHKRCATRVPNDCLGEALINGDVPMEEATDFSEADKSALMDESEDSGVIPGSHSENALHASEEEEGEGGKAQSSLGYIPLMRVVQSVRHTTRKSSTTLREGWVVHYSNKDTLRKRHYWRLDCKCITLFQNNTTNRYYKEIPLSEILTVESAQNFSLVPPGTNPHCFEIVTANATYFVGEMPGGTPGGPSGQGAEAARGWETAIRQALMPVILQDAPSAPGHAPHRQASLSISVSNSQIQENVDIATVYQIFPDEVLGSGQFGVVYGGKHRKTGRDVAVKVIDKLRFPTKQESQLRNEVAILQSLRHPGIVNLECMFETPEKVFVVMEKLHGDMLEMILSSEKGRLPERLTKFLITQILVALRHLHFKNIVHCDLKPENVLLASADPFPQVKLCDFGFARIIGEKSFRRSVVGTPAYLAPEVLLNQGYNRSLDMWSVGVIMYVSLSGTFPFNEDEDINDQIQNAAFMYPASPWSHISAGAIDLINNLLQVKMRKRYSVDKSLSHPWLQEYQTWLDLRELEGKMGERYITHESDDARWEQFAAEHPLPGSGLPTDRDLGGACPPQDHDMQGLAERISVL

PKCeta = PKCeta (Homo sapiens, UniProt P24723); settings: 1 μM; Run 1, Run 2
PKCiota = molecular target: T4, PKCiota (Homo sapiens, UniProt P41743); settings: 1 μM; Run 1, Run 2
T4 sequence (P41743 1-596): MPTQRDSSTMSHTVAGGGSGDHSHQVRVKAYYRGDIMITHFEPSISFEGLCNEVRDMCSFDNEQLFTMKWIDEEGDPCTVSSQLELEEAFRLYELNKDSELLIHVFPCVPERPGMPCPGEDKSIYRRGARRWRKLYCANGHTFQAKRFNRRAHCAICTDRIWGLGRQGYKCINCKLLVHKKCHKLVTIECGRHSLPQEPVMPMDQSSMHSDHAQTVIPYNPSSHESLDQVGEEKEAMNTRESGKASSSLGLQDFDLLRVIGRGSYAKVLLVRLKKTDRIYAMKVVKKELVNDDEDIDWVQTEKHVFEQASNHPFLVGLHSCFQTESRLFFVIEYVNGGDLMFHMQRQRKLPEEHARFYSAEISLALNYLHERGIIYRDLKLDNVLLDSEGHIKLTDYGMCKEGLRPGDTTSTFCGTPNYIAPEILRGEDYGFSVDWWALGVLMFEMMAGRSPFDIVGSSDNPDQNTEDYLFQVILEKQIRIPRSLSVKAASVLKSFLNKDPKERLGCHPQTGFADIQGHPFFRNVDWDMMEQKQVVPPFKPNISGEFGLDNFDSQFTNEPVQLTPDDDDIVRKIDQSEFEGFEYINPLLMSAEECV

FGFR2 = FGFR2 (Homo sapiens, UniProt P21802); settings: 1 μM; Run 1, Run 2
FGFR2, sequence (P21802 22-821): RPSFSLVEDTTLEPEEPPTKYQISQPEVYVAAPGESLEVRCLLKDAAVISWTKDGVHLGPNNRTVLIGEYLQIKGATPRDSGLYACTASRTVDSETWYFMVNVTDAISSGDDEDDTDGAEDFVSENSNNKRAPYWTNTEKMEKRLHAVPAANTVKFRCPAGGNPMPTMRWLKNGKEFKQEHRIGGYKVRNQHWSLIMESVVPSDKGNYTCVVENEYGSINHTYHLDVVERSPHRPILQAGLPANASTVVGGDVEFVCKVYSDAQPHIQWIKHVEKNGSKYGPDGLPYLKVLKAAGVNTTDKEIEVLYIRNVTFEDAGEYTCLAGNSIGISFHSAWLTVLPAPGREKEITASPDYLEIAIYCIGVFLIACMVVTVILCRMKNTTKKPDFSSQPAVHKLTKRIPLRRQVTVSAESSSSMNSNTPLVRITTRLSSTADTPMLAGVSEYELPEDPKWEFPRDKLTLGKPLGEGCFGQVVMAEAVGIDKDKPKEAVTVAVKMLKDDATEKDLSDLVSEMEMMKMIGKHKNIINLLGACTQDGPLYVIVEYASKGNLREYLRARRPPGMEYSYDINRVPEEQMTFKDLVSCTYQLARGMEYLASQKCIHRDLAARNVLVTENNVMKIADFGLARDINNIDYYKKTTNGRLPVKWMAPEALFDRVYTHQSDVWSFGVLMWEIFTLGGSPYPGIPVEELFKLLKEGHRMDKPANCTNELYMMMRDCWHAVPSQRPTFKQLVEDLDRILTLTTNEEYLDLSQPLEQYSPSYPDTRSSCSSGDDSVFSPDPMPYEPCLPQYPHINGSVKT

CAMK4, sequence (Q16566 whole entry): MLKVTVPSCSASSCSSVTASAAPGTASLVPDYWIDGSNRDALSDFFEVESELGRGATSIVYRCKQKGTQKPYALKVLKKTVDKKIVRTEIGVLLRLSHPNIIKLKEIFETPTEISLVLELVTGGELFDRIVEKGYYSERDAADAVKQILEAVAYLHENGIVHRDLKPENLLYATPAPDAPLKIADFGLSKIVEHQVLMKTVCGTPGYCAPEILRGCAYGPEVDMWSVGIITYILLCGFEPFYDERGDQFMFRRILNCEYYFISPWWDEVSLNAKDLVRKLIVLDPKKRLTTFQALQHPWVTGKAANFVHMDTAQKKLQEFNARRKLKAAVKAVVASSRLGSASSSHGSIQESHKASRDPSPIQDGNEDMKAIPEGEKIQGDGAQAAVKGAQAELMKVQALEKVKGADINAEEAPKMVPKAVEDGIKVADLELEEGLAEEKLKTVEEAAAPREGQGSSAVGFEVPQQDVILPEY
p70S6K/RPS6KB1, sequence (P23443 whole entry): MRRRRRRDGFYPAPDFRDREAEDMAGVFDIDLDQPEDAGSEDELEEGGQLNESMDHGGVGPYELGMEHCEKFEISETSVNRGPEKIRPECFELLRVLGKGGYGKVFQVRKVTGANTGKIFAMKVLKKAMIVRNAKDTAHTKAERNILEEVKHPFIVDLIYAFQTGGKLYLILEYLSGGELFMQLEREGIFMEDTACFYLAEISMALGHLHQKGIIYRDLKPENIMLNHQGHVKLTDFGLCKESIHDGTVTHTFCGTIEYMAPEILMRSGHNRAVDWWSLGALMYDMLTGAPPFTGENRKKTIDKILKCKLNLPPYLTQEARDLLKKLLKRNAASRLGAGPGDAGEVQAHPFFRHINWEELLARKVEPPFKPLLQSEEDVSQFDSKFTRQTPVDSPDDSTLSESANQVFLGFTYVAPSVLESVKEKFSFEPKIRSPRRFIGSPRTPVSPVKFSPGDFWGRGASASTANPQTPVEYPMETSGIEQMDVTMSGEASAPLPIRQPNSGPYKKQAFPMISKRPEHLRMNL
EGFR, sequence (P00533 25-1210): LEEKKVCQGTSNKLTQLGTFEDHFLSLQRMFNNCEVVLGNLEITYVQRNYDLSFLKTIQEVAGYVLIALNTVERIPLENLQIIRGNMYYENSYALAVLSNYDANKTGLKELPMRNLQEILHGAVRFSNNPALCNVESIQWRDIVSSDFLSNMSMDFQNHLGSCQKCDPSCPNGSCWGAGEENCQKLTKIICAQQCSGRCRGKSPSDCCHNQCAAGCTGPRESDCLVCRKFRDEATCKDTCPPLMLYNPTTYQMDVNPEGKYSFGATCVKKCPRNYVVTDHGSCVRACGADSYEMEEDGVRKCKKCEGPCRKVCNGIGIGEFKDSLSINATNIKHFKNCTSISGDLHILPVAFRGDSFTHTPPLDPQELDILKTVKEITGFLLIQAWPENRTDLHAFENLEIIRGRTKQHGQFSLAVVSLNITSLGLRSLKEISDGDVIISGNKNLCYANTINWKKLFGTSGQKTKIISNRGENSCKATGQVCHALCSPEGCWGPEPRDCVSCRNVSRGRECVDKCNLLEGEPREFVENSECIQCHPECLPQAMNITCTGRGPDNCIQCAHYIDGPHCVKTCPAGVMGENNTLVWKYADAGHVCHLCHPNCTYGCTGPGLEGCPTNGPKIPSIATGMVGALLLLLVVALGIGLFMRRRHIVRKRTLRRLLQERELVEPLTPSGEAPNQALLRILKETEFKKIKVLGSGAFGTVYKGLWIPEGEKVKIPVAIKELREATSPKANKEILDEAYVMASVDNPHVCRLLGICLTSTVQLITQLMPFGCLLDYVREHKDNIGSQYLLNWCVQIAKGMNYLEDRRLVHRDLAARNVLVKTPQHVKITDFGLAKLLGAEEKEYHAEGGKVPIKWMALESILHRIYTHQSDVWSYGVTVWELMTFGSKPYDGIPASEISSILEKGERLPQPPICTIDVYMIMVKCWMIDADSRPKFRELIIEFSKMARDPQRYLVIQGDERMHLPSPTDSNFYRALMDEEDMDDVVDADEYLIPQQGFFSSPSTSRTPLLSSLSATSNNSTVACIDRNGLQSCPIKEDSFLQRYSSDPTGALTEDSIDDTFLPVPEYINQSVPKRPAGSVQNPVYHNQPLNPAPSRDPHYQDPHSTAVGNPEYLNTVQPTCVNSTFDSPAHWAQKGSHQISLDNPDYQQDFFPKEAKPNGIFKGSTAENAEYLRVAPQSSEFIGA
PKCeta, sequence (P24723 whole entry): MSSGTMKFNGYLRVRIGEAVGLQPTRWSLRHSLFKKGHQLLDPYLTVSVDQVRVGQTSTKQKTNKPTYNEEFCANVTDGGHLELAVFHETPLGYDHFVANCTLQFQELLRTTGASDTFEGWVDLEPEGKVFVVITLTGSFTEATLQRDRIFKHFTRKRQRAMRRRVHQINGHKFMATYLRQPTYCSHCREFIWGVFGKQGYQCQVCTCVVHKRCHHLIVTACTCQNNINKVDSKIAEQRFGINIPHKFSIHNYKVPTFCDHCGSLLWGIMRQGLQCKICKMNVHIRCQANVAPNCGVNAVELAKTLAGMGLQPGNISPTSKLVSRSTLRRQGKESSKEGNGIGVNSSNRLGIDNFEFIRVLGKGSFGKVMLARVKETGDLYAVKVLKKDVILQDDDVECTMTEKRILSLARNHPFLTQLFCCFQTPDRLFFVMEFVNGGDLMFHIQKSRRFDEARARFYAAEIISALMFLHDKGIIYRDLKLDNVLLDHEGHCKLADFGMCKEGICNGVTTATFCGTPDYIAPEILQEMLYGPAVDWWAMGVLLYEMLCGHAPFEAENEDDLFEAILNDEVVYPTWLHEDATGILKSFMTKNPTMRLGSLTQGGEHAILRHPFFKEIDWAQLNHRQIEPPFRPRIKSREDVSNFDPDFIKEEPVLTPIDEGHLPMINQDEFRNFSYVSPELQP

Row | SMILES | % enzyme activity (ALK2/ACVR1) [%] | remaining activity at 1 µM (ALK2/ACVR1) [%] | % enzyme activity (EGFR) [%] | % enzyme activity (p70S6K/RPS6KB1) [%] | remaining activity at 1 µM (MEKK3) [%] | % enzyme activity (CAMK4) [%] | remaining activity at 1 µM (PKD2/PRKD2) [%] | % enzyme activity (PKCeta) [%] | % enzyme activity (PKCiota) [%] | % enzyme activity (FGFR2) [%]
1 | COc1cc(-c2cncc(-c3ccc(N4CCN(C)CC4)cc3)c2C)cc(F)c1C(N)=O [Compound 26a, 2-Fluoro-6-methoxy-4-(4-methyl-5-(4-(4-methylpiperazin-1-yl)phenyl)pyridin-3-yl)benzamide] | 8.63 | 9.92 | 95.66 | 96.69 | 98 | 98.68 | 96.1 | 93.90 | 100.36 | 95.46
2 | COc1cc(-c2cncc(-c3ccc(N4C[C@@H](C)N(C)[C@@H](C)C4)cc3)c2C)cc(F)c1C(N)=O [Compound 26c, 2-Fluoro-6-methoxy-4-(4-methyl-5-(4-((3R,5S)-3,4,5-trimethylpiperazin-1-yl)phenyl)pyridin-3-yl)benzamide] | 11.70 | 13.7 | 93.91 | 99.76 | 109 | 100.90 | 99.2 | 98.10 | 98.91 | 90.89
